This note sets out measurements from ChEMBL document CHEMBL1153754, “1-Aryl-3,4-dihydroisoquinoline inhibitors of JNK3” (Bioorg Med Chem Lett, 2009).

SMILES strings stand for the structures. Bounds are passed on as bounds.

The target of assay [1] is T1, Mitogen-activated protein kinase 10 (Homo sapiens, UniProt P53779). Briefly: Inhibition of N-terminal His(6)-tagged truncated human JNK3 transfected in baculovirus expression system by fluorescence anisotropy. On the technique in general: Polarisation of emitted light reports the rotation of a fluorescent probe.
The target of assay [2] is T2, Mitogen-activated protein kinase 14 (Homo sapiens, UniProt Q16539). Kind of assay: Inhibition of histidine-tagged human recombinant p38alpha after 120 mins by TR-FRET assay. For orientation: In TR-FRET formats the signal depends on donor and acceptor labels being close together.
The target in assay [3] is T2, Mitogen-activated protein kinase 14. Kind of assay: Inhibition of N-terminal GST-tagged p38alpha expressed in Escherichia coli by fluorescence anisotropy.
For assay [4], the target named is T1, Mitogen-activated protein kinase 10. Kind of assay: Inhibition of JNK3 by high throughput screening.
The target of assay [5] is Mitogen-activated protein kinase 9 (Homo sapiens, UniProt P45984). Briefly: Inhibition of N-terminal histidine-tagged human full length JNK2-alpha-2 by radiometric filter binding assay.
Assay [6] concerns the target T3, Mitogen-activated protein kinase 8 (Homo sapiens, UniProt P45983). Kind of assay: Inhibition of N-terminal histidine-tagged human full length JNK1-alpha-1 by radiometric filter binding assay.
The target in assay [7] is T1, Mitogen-activated protein kinase 10. Kind of assay: Inhibition of N-terminal histidine-tagged human full length JNK3 by radiometric filter binding assay.
In assay [8] the target is Mitogen-activated protein kinase 1 (Homo sapiens, UniProt P28482). Kind of assay: Inhibition of N-terminal GST-tagged human full length Erk2 by radiometric filter binding assay.
Assay [9] deals with Serine/threonine-protein kinase B-raf (Homo sapiens, UniProt P15056). Briefly: Inhibition of B-Raf.
Assay [10] addresses Macrophage colony-stimulating factor 1 receptor (Homo sapiens, UniProt P07333). Briefly: Inhibition of c-Fms.
The target of assay [11] is Cyclin-dependent kinase 2 (Homo sapiens, UniProt P24941). Briefly: Inhibition of CDK2.
For assay [12], the target named is Receptor tyrosine-protein kinase erbB-2 (Homo sapiens, UniProt P04626). Kind of assay: Inhibition of ErbB2.
Assay [13] concerns the target Glycogen synthase kinase-3 beta (Homo sapiens, UniProt P49841). Kind of assay: Inhibition of GSK3-beta.
Assay [14] addresses T4, Inhibitor of nuclear factor kappa-B kinase subunit alpha (Homo sapiens, UniProt O15111).
T4 sequence (O15111 whole entry): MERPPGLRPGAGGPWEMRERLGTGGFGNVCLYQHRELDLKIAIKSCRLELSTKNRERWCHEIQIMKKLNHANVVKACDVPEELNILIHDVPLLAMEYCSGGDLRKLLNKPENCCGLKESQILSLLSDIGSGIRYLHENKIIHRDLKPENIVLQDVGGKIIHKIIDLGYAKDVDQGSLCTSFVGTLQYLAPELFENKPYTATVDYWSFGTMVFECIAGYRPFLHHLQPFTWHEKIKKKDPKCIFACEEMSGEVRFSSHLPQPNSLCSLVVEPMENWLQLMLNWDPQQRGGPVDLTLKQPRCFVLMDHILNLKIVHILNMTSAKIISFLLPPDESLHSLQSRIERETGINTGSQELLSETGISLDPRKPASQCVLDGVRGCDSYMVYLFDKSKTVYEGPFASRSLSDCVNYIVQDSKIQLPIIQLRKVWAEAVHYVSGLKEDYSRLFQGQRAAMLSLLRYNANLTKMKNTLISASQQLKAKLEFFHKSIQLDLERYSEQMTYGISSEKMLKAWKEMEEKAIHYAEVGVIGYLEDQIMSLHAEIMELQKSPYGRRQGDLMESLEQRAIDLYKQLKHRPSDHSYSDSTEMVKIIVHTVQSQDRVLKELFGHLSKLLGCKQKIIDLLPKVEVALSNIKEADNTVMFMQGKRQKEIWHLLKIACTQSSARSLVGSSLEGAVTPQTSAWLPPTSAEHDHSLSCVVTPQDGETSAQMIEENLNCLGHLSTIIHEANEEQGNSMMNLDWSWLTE
Kind of assay: Inhibition of IKKalpha.

Assay [15] deals with T5, Inhibitor of nuclear factor kappa-B kinase subunit beta (Homo sapiens, UniProt O14920).
T5 sequence (O14920 whole entry): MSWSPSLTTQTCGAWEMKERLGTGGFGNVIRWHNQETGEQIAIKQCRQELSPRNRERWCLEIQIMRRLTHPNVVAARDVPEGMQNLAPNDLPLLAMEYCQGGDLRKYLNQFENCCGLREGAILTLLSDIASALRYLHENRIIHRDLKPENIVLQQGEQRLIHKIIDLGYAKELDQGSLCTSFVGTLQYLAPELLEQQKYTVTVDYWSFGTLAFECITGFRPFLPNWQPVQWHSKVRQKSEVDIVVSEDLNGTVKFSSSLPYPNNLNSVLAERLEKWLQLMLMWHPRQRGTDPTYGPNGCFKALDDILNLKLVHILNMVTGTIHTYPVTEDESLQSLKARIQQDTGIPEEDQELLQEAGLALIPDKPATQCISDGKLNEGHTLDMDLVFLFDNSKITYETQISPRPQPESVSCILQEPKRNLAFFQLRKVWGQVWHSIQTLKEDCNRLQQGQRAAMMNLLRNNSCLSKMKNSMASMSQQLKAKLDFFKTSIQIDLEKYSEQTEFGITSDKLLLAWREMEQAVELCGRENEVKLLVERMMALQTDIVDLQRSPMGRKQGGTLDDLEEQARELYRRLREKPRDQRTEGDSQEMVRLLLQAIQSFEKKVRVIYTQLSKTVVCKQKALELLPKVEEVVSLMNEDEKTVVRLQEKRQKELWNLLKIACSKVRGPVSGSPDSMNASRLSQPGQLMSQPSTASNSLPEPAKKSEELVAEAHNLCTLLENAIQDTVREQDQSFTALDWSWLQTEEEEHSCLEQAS
Briefly: Inhibition of IKK-beta.

In assay [16] the target is Mitogen-activated protein kinase kinase kinase 11 (Homo sapiens, UniProt Q16584). Briefly: Inhibition of MLK3.
For assay [17], the target named is Serine/threonine-protein kinase PLK1 (Homo sapiens, UniProt P53350). Kind of assay: Inhibition of PLK1.
For assay [18], the target named is Rho-associated protein kinase 1 (Homo sapiens, UniProt Q13464). Briefly: Inhibition of ROCK1.
The target in assay [19] is T6, Serine/threonine-protein kinase Sgk1 (Homo sapiens, UniProt O00141).
T6 sequence (O00141 whole entry): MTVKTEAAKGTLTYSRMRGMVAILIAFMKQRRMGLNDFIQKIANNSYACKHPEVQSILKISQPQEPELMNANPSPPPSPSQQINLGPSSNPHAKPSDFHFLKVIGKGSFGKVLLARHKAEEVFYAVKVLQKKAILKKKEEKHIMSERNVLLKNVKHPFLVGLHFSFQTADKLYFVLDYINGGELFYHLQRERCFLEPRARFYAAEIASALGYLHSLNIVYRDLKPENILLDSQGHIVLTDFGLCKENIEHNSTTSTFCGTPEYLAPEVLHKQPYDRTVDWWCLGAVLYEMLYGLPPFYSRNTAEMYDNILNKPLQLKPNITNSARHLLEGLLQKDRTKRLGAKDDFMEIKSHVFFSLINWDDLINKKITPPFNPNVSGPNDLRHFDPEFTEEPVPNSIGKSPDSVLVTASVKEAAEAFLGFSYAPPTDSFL
Briefly: Inhibition of SGK1.

For assay [20], the target named is Tyrosine-protein kinase Lck (Homo sapiens, UniProt P06239).
The target of assay [21] is T3, Mitogen-activated protein kinase 8. Kind of assay: Inhibition of JNK1 by high throughput screening.
The target in assay [22] is T2, Mitogen-activated protein kinase 14. Briefly: Inhibition of p38alpha by high throughput screening.

T1 sequence (P53779 whole entry, the tested form may be a part): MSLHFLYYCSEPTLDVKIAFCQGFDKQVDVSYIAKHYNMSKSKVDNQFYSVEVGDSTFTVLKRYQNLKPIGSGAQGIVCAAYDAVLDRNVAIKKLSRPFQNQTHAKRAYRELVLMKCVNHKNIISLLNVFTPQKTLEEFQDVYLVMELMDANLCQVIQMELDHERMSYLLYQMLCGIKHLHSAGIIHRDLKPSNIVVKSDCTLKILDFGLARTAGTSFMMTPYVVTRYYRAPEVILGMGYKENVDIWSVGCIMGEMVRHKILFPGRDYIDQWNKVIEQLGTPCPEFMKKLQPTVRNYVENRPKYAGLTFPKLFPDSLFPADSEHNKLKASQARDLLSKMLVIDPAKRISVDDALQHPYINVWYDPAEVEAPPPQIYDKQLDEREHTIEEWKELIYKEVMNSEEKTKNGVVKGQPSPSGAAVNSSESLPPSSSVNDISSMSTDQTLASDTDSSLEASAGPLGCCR
T3 sequence (P45983 whole entry): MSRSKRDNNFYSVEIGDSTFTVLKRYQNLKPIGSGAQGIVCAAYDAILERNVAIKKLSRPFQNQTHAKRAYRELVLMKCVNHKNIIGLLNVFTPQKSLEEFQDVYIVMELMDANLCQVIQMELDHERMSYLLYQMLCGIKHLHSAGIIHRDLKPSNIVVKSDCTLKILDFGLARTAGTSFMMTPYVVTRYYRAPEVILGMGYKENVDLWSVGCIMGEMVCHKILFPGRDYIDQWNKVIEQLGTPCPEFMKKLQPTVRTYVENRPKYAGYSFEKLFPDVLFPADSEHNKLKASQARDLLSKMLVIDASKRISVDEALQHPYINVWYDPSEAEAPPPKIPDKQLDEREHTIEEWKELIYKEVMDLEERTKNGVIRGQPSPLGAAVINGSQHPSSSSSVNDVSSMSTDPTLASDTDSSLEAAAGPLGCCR
T2 sequence (Q16539 whole entry): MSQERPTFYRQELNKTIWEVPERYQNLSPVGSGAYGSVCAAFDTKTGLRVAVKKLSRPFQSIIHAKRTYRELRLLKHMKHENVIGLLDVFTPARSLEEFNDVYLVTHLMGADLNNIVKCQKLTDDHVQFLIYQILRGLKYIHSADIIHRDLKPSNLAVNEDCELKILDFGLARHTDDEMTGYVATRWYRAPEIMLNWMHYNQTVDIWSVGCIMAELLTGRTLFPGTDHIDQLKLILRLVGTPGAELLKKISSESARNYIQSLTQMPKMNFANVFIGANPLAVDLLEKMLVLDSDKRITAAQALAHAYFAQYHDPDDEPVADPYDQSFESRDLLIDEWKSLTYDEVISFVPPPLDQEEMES
Sequence of Mitogen-activated protein kinase kinase kinase 11 (Q16584 whole entry): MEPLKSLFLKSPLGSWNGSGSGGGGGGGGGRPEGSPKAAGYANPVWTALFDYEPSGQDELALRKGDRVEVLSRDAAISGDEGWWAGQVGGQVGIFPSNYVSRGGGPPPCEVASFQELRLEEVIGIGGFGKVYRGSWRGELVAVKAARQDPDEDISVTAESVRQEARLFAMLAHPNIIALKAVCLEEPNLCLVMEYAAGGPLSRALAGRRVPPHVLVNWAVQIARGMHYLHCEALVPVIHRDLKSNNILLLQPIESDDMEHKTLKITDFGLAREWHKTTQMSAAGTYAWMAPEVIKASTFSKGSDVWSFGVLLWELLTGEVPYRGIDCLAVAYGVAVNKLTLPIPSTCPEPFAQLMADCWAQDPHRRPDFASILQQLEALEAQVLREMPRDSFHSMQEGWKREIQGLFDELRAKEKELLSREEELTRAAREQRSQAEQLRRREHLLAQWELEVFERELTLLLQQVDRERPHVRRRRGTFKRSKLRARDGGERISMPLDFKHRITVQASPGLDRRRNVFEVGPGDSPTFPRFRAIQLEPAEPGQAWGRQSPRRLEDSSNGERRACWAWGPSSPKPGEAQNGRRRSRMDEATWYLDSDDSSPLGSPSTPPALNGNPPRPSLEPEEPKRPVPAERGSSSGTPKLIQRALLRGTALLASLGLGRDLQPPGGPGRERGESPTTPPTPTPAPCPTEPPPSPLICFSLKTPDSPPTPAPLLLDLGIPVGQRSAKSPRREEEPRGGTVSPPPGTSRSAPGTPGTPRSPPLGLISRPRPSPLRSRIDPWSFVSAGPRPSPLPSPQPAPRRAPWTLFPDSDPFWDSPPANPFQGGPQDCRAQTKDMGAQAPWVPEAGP
Sequence of Serine/threonine-protein kinase PLK1 (P53350 whole entry): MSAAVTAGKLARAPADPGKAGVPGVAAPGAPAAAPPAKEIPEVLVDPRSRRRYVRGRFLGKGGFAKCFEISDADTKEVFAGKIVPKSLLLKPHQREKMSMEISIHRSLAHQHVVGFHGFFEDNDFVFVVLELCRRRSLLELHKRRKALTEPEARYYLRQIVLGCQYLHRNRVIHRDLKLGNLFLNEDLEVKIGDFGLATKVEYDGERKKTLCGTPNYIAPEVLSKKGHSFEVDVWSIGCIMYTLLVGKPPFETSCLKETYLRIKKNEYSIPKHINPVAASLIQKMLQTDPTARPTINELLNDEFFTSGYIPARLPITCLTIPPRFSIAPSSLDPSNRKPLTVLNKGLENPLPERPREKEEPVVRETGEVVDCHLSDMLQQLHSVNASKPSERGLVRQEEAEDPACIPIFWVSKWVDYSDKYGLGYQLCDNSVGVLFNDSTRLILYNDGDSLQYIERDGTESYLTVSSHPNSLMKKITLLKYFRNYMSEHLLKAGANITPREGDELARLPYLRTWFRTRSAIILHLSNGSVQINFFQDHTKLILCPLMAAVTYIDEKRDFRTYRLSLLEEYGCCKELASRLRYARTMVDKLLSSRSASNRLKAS
Sequence of Serine/threonine-protein kinase B-raf (P15056 whole entry): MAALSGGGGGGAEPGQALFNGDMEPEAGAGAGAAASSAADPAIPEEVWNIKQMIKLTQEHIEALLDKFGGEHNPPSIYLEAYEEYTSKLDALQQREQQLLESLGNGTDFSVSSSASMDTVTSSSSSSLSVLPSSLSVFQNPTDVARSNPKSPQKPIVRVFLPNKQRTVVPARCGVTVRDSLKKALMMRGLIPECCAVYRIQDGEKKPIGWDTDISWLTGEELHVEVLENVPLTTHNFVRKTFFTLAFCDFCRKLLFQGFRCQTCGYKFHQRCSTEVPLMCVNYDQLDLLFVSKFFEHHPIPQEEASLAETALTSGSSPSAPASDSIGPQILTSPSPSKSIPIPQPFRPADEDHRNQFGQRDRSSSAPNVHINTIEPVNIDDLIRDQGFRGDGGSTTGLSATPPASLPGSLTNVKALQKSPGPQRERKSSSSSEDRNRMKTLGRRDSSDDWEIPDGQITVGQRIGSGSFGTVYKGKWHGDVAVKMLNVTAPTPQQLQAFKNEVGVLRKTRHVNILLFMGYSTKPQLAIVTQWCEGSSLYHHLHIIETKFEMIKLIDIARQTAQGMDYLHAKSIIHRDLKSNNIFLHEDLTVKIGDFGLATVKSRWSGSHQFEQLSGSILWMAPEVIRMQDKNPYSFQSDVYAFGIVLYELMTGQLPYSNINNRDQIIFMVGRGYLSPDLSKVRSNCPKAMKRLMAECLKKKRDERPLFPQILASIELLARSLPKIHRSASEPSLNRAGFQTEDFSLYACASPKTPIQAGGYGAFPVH
Sequence of Macrophage colony-stimulating factor 1 receptor (P07333 whole entry): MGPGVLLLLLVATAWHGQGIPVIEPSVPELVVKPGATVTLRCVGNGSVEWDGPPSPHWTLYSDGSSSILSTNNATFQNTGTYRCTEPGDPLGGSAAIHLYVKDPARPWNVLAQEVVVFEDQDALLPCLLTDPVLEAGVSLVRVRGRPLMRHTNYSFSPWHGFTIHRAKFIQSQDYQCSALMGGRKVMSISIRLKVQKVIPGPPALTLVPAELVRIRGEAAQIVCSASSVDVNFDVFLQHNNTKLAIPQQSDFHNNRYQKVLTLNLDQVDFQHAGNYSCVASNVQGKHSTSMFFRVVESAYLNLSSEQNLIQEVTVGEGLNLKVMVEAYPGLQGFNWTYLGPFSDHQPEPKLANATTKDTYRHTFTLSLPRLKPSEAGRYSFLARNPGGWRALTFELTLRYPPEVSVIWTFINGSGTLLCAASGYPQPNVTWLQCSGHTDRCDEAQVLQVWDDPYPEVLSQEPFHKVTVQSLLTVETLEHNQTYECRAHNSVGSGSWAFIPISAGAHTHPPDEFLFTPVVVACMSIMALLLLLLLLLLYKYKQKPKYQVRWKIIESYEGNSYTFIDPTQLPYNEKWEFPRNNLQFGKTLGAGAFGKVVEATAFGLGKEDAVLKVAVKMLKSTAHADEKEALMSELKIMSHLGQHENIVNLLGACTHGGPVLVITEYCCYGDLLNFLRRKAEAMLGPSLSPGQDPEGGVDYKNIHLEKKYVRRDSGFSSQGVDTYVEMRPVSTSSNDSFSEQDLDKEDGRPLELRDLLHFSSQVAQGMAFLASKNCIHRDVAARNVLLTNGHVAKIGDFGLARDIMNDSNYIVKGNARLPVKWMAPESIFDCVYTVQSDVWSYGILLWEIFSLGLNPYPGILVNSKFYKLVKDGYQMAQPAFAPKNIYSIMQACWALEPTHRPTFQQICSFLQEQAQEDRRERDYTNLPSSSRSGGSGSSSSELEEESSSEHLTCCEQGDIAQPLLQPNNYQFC
Sequence of Mitogen-activated protein kinase 9 (P45984 whole entry): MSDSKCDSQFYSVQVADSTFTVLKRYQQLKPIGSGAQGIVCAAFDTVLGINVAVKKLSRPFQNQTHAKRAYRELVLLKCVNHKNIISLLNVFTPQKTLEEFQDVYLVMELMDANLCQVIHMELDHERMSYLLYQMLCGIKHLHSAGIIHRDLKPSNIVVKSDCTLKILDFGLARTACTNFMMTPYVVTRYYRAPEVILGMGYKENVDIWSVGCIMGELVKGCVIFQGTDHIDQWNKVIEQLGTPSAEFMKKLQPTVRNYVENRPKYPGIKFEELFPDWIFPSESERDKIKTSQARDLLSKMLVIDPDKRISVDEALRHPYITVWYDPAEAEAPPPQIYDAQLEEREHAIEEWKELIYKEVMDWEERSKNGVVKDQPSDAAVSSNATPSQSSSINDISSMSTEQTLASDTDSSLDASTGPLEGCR

On to `COc1cc2c(cc1Cl)CCN=C2c1cccc(Br)c1`, for which the IC50 is 10 µM in assay [1] and more than 15.8 µM in assay [2].

As for `COc1cc2c(cc1OC)C(c1ccc(Cl)c(Cl)c1)=NCC2`, the 50% inhibitory concentration (IC50) is 6.31 µM in assay [1] and more than 15.8 µM in [3].

Regarding `COc1cc2c(cc1Cl)CCN=C2c1ccc(Cl)c(Cl)c1`, the IC50 is 15.8 µM in [1] and more than 15.8 µM in [2].

With `COc1cc2c(cc1Cl)C(c1ccc(F)cc1)=NCC2`, the IC50 was 5.01 µM in assay [1] and more than 15.8 µM in assay [3].

Take `COc1cc2c(cc1Cl)C(c1cccc(Cl)c1F)=NCC2`: the IC50 is 0.631 µM in assay [1] and 12.6 µM in assay [3].

Take `COc1cc2c(cc1Cl)CCN=C2c1cccc(F)c1`: the IC50 in assay [1] and in [2] was more than 15.8 µM in each case.

Turning to `COc1cc2c(cc1Cl)C(c1cccc(C)c1)=NCC2`, the IC50 in [1] was 2 µM; in assay [3], more than 15.8 µM.

Consider `COc1cc2c(cc1Cl)C(c1ccc3ccccc3c1)=NCC2`, for which the values for the IC50 in assay [1] and in [3] were 1 µM and more than 15.8 µM, respectively.

As to `COc1cc2c(cc1OC)C(c1ccccc1)=NCC2`, the IC50 in assay [1] and in assay [2] was more than 15.8 µM in each case.

`Clc1cccc(C2=NCCc3ccccc32)c1`: the concentration for half-maximal inhibition (IC50) in [1] and in assay [3] was more than 15.8 µM each time.

As to `COc1cc2c(cc1Cl)C(c1ccccc1)=NCC2`, the figures for the half-inhibitory concentration (IC50) in assay [1] and in assay [3] were 6.31 µM and more than 15.8 µM, respectively.

In the case of `COc1cc2c(cc1Cl)C(c1cccc(Br)c1)=NCC2`, the IC50 in assay [1] was 0.398 µM; in assay [3] it was 12.6 µM.

As to `COc1cc2c(cc1OC)C(c1cccc(Cl)c1)=NCC2`, the half-maximal inhibitory concentration (IC50) in [4] is 10 µM.

On to `COc1cc2c(cc1Cl)C(c1ccc(Cl)c(Cl)c1)=NCC2`, for which the IC50 in assay [5] is 0.794 µM; in assay [1], 0.316 µM; in [3], 7.94 µM; in assay [6] it was 100 µM; in assay [7], 0.0501 µM; in assay [8], more than 100 µM. For the same compound, the half-maximal inhibitory concentration (IC50) in assay [9], in assay [10], in assay [11], in [12], in assay [13] and in assay [14] was more than 10 µM in each case. Further, the concentration for half-maximal inhibition (IC50) in assay [15], in [16], in [17], in [18] and in assay [19] was more than 10 µM each time.

Turning to `COc1cc2c(cc1Cl)CCN=C2c1ccccc1`, the 50% inhibitory concentration (IC50) in [1] and in assay [2] was more than 15.8 µM throughout.

As to `COc1cc2c(cc1Cl)C(c1cccc(Cl)c1)=NCC2`, the IC50 is 1.26 µM in assay [5]; 0.251 µM in assay [1]; 7.94 µM in assay [3]; more than 100 µM in assay [6]; 0.126 µM in [7]; more than 100 µM in assay [8]. Besides, the IC50 in assay [9], in assay [10], in [11], in assay [12], in assay [13] and in assay [14] was more than 10 µM in each case. Also, the half-inhibitory concentration (IC50) in [15], in [16], in assay [17], in assay [18], in assay [19] and in [20] was more than 10 µM in each case.

For the compound `COc1cc2c(cc1Cl)CCN=C2c1cccc(Cl)c1`, the values for the IC50 in assay [1] and in [2] were 12.6 µM and more than 15.8 µM, respectively.

Consider `COc1cc2c(cc1Cl)CCN=C2c1ccc2ccccc2c1`, for which the half-inhibitory concentration (IC50) in assay [1] and in assay [2] was more than 15.8 µM throughout.

Consider `COc1cc2c(cc1Cl)C(Cc1ccccc1)=NCC2`, for which the half-maximal inhibitory concentration (IC50) in assay [1] and in assay [3] was more than 15.8 µM in each case.

Regarding `COc1cc2c(cc1Cl)CCN=C2c1ccc(F)cc1`, the IC50 in assay [1] and in assay [2] was more than 15.8 µM throughout.

For the compound `COc1cccc(C2=NCCc3cc(OC)c(OC)cc32)c1`, the IC50 in assay [1] and in [3] was more than 15.8 µM in each case.

`COc1cc2c(cc1OC)C(c1ccc(Cl)cc1)=NCC2`: the IC50 in assay [1] and in [3] was more than 15.8 µM each time.

For `CCC1=NCCc2cc(OC)c(Cl)cc21`, the IC50 in [1] and in [3] was more than 15.8 µM in each case.

Take `O=C(NC1CCNCC1)c1cccc(-c2n[nH]c3cc(Nc4ccccc4Cl)ccc23)c1`: the half-inhibitory concentration (IC50) was 0.0794 µM in assay [21], 0.00126 µM in assay [4] and 0.00398 µM in assay [22].

For `COc1cc2c(cc1Cl)C(c1cccc(F)c1)=NCC2`, the IC50 in [1] is 3.98 µM; in assay [3], more than 15.8 µM.

By IC50 is commonly meant the concentration that inhibits the measured activity by half.
